Reference: PMC8400955 (Pharmaceuticals, 2021)
Like-named read-outs stand apart in the source and are kept apart here.

Columns and labels:
[1] = 7-day repeated-dose PK in rats; assay type: in vivo, Sprague Dawley rats; conditions: rat, plasma
Procedure: Groups of Sprague Dawley rats (n = 5/sex/group; n = 3/sex/TK group) were orally administered ZB716 (20% PG, 5% Solutol, and 75% of 40% HP-β-CD in DI water) at dose levels of 10, 100, and 400 mg/kg/day for 7 days. […] Systemic exposure, expressed as Cmax and AUClast values, increased with dose in a less than dose-proportional manner on days 1 and 7 (Figure 2). A slight gender difference was observed; generally, systemic exposures were higher in females than in males (male/female AUClast ratio = 0.442:0.883). Accumulation was observed only in male animals given 400 mg/kg/day.
Four-to-six-week-old Sprague Dawley rats (Crl: CD (SD)) (SPF/VAF) were purchased from Beijing Vital River Laboratory Animal Technology, Co. Ltd.). Six-month-old beagle dogs were purchased from Beijing Marshall Biotechnology Co. Ltd. Animals were quarantined/acclimated for 2–6 weeks prior to dose initiation. Both Sprague Dawley rats and beagle dogs were given oral administration of ZB716 (20% PG, 5% Solutol, and 75% of 40% HP-β-CD in water) at different dose levels. After treatment with the test articles, whole blood was collected from each study animal by puncture of the tail vein (0.4 mL of whole blood from rats) and/or the peripheral vein (0.6 mL of whole blood from dogs) into tubes containing K2EDTA at each timepoint: pre-dose, and 0.5, 1, 2, 4, 8, and 24 h post-dose. The plasma samples were divided into 2 aliquots (approximately equal in volume) and stored frozen at −75 ± 15 °C within 2 h of the collection until analysis at Pharmaron, China.
The stock solution of ZB716 (5.0 mg/mL) and ZB716-d6 (1 mg/mL) in ACN:DI Water = 1:1 was prepared and stored at −20 ± 5 °C. The desired serial concentrations of working reference analyte solutions were achieved by diluting a stock analyte solution with 50% acetonitrile (0.1% formic acid) in water solution. The bioanalytical LC–MS/MS method was validated for quantitative determination of ZB716 in Sprague Dawley rat plasma and beagle dog plasma, with acceptable selectivity, sensitivity, calibration curve, precision, and accuracy. This method is applicable for the determination of ZB716 in Sprague Dawley rat plasma and beagle dog plasma, with a lower limit of quantification of 20.0 ng/mL, and an upper limit of quantification of 10,000 ng/mL.
Five microliters of diluted supernatant was injected into the LC–MS/MS system (Shimadzu LC30AD HPLC system with a SynergiTM 4 μm Fusion-RP 80 Å (50 × 2 mm) column using gradient elution and a Triple Quad 5500 mass spectrometer) for quantitative analysis. The mobile phases used were 0.1% formic acid in deionized water and 0.1% formic acid in acetonitrile. The pharmacokinetic parameters T1/2 (the biological half-life), Cmax (maximal concentration), Tmax (time at which Cmax is observed), and AUC (area under the plasma concentration–time curve) were calculated from the plasma concentration versus time data using WinNonlin (Phoenix^TM, version 8.1, Mountain View, CA, USA). All PK studies were conducted by Pharmaron in Beijing, China.

[2] = Metabolic stability in human hepatocytes; assay type: in vitro ADME
Procedure: (§1) Hepatocytes of humans (#X008001), dogs (#M00205), rats (#M00005), and mice (#M005052) were purchased from BioIVT, NY, USA. Monkey hepatocytes were procured from RILD, Shanghai, China. The metabolic stability of ZB716 in human, monkey, dog, rat and mouse hepatocytes was investigated by incubating ZB716 with human, monkey, dog, rat, and mouse hepatocytes (0.5 × 10^6 cells/mL), or with incubation medium only.
(§2) parent disappearance vs. incubation time curve.
(§3) Scaled-up Clint = kV/N × Scaling Factor
(§4) metabolite formed during the reaction.

human hepatocytes = experiment: Metabolic stability in human hepatocytes; assay type: in vitro ADME; conditions: 1 μM
Procedure: as §1, §2, §3, §4

CYP2C9 = CYP2C9 (Homo sapiens, UniProt P11712); experiment: CYP phenotyping, recombinant CYP2C9
CYP2C9, sequence (P11712 whole entry): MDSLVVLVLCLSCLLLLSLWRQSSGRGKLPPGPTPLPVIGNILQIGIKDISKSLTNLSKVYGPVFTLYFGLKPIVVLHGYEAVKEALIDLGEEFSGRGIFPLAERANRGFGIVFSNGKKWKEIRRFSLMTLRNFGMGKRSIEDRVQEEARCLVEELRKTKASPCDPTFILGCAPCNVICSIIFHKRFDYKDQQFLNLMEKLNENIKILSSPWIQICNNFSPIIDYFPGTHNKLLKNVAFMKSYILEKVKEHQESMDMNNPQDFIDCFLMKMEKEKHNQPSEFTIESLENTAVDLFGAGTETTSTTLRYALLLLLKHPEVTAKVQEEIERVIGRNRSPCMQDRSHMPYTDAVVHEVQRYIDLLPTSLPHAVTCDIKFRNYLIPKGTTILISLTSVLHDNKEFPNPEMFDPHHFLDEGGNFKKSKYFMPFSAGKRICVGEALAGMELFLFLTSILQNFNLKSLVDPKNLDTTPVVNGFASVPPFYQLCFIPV

[3] = female, Sprague Dawley (Crl: CD (SD)), po, 400 mg/kg/day, day 1, PO 400 mg/kg/day, F
[4] = female, Sprague Dawley, po, 10 mg/kg/day, day 1, PO 10 mg/kg/day, F
[5] = female, Sprague Dawley, po, 10 mg/kg/day, day 7, PO 10 mg/kg/day, F
[6] = female, Sprague Dawley, po, 100 mg/kg/day, day 7, PO 100 mg/kg/day, F
[7] = female, Sprague Dawley, po, 400 mg/kg/day, day 7, PO 400 mg/kg/day, F
[8] = male, Sprague Dawley (Crl: CD (SD)), po, 10 mg/kg/day, day 7, PO 10 mg/kg/day, M
[9] = male, Sprague Dawley (Crl: CD (SD)), po, 400 mg/kg/day, day 1, PO 400 mg/kg/day, M
[10] = male, Sprague Dawley, po, 10 mg/kg/day, day 1, PO 10 mg/kg/day, M
[11] = male, Sprague Dawley, po, 100 mg/kg/day, day 1, PO 100 mg/kg/day, M
[12] = male, Sprague Dawley, po, 100 mg/kg/day, day 7, PO 100 mg/kg/day, M
[13] = male, Sprague Dawley, po, 400 mg/kg/day, day 7, PO 400 mg/kg/day, M

With `C[C@]12CC[C@@H]3c4ccc(B(O)O)cc4C[C@@H](CCCCCCCCC[S+]([O-])CCCC(F)(F)C(F)(F)F)[C@H]3[C@@H]1CC[C@@H]2O` (some centres unmarked) [ZB716, fulvestrant-3-boronic acid] the Tmax ([1]; both sexes, Sprague Dawley, oral, 100 mg/kg/day, 10 and 100 mg/kg/day, day 1 and day 7, mostly, read-out: Tmax) was 30 to 60 min, the Tmax ([1]; both sexes, Sprague Dawley, oral, 400 mg/kg/day, day 1 and day 7, read-out: Tmax) was no more than 480 min and the AUC(0-t) ([1]; female, Sprague Dawley (Crl: CD (SD)), po, 100 mg/kg/day, day 1, PO 100 mg/kg/day, F) was 26700 ng·h/mL. It also gave an AUC(0-t) [1, 3] of 27900 ng·h/mL, a Cmax [1, 3] of 2770 ng/mL and a Tmax ([1]; female, Sprague Dawley (Crl: CD (SD)), po, 400 mg/kg/day, day 1, PO 400 mg/kg/day, F, read-out: Tmax (median)) of 480 min. For the same compound, the AUC(0-t) [1, 4] was 1760 ng·h/mL, the Cmax [1, 4] was 459 ng/mL and the Tmax ([1]; female, Sprague Dawley, po, 10 mg/kg/day, day 1, PO 10 mg/kg/day, F, read-out: Tmax (median)) was 30 min. The AUC(0-t) [1, 5] was 2820 ng·h/mL, the Cmax [1, 5] was 710 ng/mL and the Tmax ([1]; female, Sprague Dawley, po, 10 mg/kg/day, day 7, PO 10 mg/kg/day, F, read-out: Tmax (median)) was 30 min. It also gave a Cmax ([1]; female, Sprague Dawley, po, 100 mg/kg/day, day 1, PO 100 mg/kg/day, F) of 3350 ng/mL, a Tmax ([1]; female, Sprague Dawley, po, 100 mg/kg/day, day 1, PO 100 mg/kg/day, F, read-out: Tmax (median)) of 60 min and an AUC(0-t) [1, 6] of 20700 ng·h/mL. For the same compound, the Cmax [1, 6] was 2750 ng/mL, the Tmax ([1]; female, Sprague Dawley, po, 100 mg/kg/day, day 7, PO 100 mg/kg/day, F, read-out: Tmax (median)) was 30 min and the AUC(0-t) [1, 7] was 37100 ng·h/mL. It also gave a Cmax [1, 7] of 3710 ng/mL, a Tmax ([1]; female, Sprague Dawley, po, 400 mg/kg/day, day 7, PO 400 mg/kg/day, F, read-out: Tmax (median)) of 30 min and an AUC(0-t) [1, 8] of 2260 ng·h/mL. For the same compound, the Cmax [1, 8] was 322 ng/mL, the Tmax ([1]; male, Sprague Dawley (Crl: CD (SD)), po, 10 mg/kg/day, day 7, PO 10 mg/kg/day, M, read-out: Tmax (median)) was 60 min and the AUC(0-t) [1, 9] was 15200 ng·h/mL. It also gave a Cmax [1, 9] of 1920 ng/mL, a Tmax ([1]; male, Sprague Dawley (Crl: CD (SD)), po, 400 mg/kg/day, day 1, PO 400 mg/kg/day, M, read-out: Tmax (median)) of 480 min and an AUC(0-t) [1, 10] of 1320 ng·h/mL. It also gave a Cmax [1, 10] of 365 ng/mL, a Tmax ([1]; male, Sprague Dawley, po, 10 mg/kg/day, day 1, PO 10 mg/kg/day, M, read-out: Tmax (median)) of 30 min and an AUC(0-t) [1, 11] of 11800 ng·h/mL. It also gave a Cmax [1, 11] of 1420 ng/mL, a Tmax ([1]; male, Sprague Dawley, po, 100 mg/kg/day, day 1, PO 100 mg/kg/day, M, read-out: Tmax (median)) of 30 min and an AUC(0-t) [1, 12] of 12900 ng·h/mL. It also gave a Cmax [1, 12] of 1610 ng/mL, a Tmax ([1]; male, Sprague Dawley, po, 100 mg/kg/day, day 7, PO 100 mg/kg/day, M, read-out: Tmax (median)) of 30 min and an AUC(0-t) [1, 13] of 32700 ng·h/mL. The Cmax [1, 13] was 2340 ng/mL, the Tmax ([1]; male, Sprague Dawley, po, 400 mg/kg/day, day 7, PO 400 mg/kg/day, M, read-out: Tmax (median)) was 480 min and the half-life at 1 μM ([2]; read-out: Estimated In Vitro t1/2) was 34.9 ± 1 min. The hepatocyte CLint at 1 μM ([2]; read-out: In Vitro Clint) was 39.7 ± 1.1 µL/min/1e6 cells, the CLint scaled at 1 μM ([2]; read-out: Scaled-Up Clint) was 101 ± 3 mL/min/kg and the “Remaining at 120 min” value (human hepatocytes) was 7.98 ± 0.7%. It also gave a half-life at 2 µM (CYP2C9; human) of 18.6 ± 0.4 min and a Clint (CYP2C9; recombinant CYP2C9, 2 µM ZB716) of 0.746 ± 0.015 µL/min/pmol CYP.
